The subject of this assay is Hepatitis C replicon. The experiment in a line: HCV replicon assay (NPT ELISA readout) in Huh-7 replicon-containing cells. The assay is classed as cell-based, Hepatitis C virus. Particulars: Hepatitis C virus, 72 h; HCV replicon in Huh-7 cells, three days incubation. The procedure:
Compounds claimed herein are tested for the ability to inhibit viral replication of the Hepatitis C replicon in cultured cells in which the HCV replicon construct has been incorporated. The HCV replicon system was described by Bartenschlager, et. al (Science, 285, pp. 110-113 (1999)). The replicon system is predictive of in vivo anti-HCV activity; compounds that are active in humans uniformly evidence activity in the replicon assay.
In this assay HCV replicon containing cells are treated with different concentrations of the test compound to ascertain the ability of the test compound to suppress replication of the HCV replicon. As a positive control, HCV replicon-containing cells are treated with different concentrations of interferon alpha, a known inhibitor of HCV replication. The replicon assay system includes Neomycin Phosphotransferase (NPT) as a component of the replicon itself in order to detect the transcription of replicon gene products in the host cell. Cells in which the HCV replicon is actively replicating have high levels of NPT; the level of NPT is proportional to HCV replication. […] The NPT level of each sample is measured using a captured ELISA.
A protocol for testing compounds for the ability to inhibit viral replication of the Hepatitis C replicon cultured cells in which the replicon construct has been incorporated, follows.
The HCV replicon contains, 5′-3′, the HCV-IRES, the neomycin phosphotransferase (neo) gene, the IRES of encephalomyocarditis virus, which directs translation of HCV sequences NS3 to NS5B, and the 3′-NTR. The sequence of the HCV replicon has been deposited in GenBank (Accession no. AJ242652).
The replicon is transfected into Huh-7 cells using standard methods such as electroporation.
The equipment and materials include, but are not limited to, Huh-7 HCV replicon-containing cells, maintenance media (DMEM (Dulbecco's modified Eagle media) supplemented with 10% FBS, L-glutamine, non-essential amino acids, penicillin (100 units/ml), streptomycin (100 micrograms/ml), and 500 micrograms/ml of Geneticin (G418), screening media (DMEM supplemented with 10% FBS, L-glutamine, non-essential amino acids, penicillin (100 units/ml) and streptomycin (100 micrograms/ml)), 96 well tissue culture plates (flat bottom), 96 well plates (U bottom for drug dilution), Interferon alpha for positive control, fixation reagent (such as methanol:acetone), primary antibody (rabbit anti-NPTII), secondary antibody: Eu-N1 l, and enhancement solution.
The cells are then seeded onto 96-well plates at a density of 6000-7500 cells/100 microliters/well (6-7.5×10^5 cells/10 ml/plate). The plates are then incubated at 37° C. in a 5% CO2 incubator.
HCV replicon-containing cells are rinsed with once PBS once; 2 mls of trypsin are then added. Cells are incubated at 37° C. in a 5% CO2 incubator for 3-5 minutes. 10 mls of complete medium is added to stop the reaction. Cells are blown gently, put into a 15 ml tube, and spun at 1200 rpm for four minutes. The trypsin/medium solution is removed and 5 mls of medium (500 ml DMEM (high glucose)) from BRL catalog #12430-054; 50 mls 10% FBS, 5% Geneticin G418 (50 mg/ml, BRL catalog #10131-035), 5 ml MEM non-essential amino acids (100×BRL #11140-050) and 5 ml pen-strep (BRL #15140-148) is added. The cells and media are mixed carefully
Cells are plated with screening medium (500 ml DMEM (BRL #21063-029), 50 ml FBS (BRL #10082-147) and 5 ml MEM non-essential amino acid (BRL #11140-050) at 6000-7500 fcells/100 μl/well of 96 well plate (6-7.5×10^5 cells/10 ml/plate). Plates are placed into 37° C. 5% CO2 incubator overnight.
The following morning, drugs (test compounds or interferon alpha) are diluted in 96 well U bottom plates with media or DMSO/media, depending on the final concentration chosen for screening. Generally for 6 concentrations of each test compounds ranging from 10 micromolar to 0.03 micromolar are applied. […]

The record followed here is patent US8697641B2, “4-amino-4-oxobutanoyl peptide cyclic analogues, inhibitors of viral replication” (Achillion Pharmaceuticals, Inc., priority 2008, dated 2014).

The structures appear in SMILES notation.

A word on the EC50: it is the midpoint of the concentration-response curve.

Consider `COc1ccc2c(O[C@@H]3C[C@H]4C(=O)N[C@@](C)(C(=O)NS(=O)(=O)C5CC5)CCCCCCCC[C@H](CC(=O)N5CCCCC5)C(=O)N4C3)cc(-c3ccccc3)nc2c1` [Compound 54, (3R,12R,16R,17aS)-N-(cyclopropylsulfonyl)-16-(7-methoxy-2-phenylquinolin-4-yloxy)-3-methyl-1,13-dioxo-12-(2-oxo-2-(piperidin-1-yl)ethyl)hexadecahydro-1H-pyrrolo[1,2-a][1,4] diazacyclopentadecine-3-carboxamide], for which the EC50 was < 1000 nM.
Consider `COc1ccc2c(O[C@@H]3C[C@H]4C(=O)N[C@]5(C(=O)NS(=O)(=O)C6CC6)C[C@H]5/C=C\CCCCC[C@H](CC(=O)N5CCCC5)C(=O)N4C3)cc(-c3ccccc3)nc2c1` [Compound 55, (2R,6R,13aS, 14aR,16aS,Z)-N-(cyclopropylsulfonyl)-2-(7-methoxy-2-phenylquinolin-4-yloxy)-5,16-dioxo-6-(2-oxo-2-(pyrrolidin-1-yl)ethyl)-1,2,3,5,6,7,8,9,10,11, 13a,14,14a,15,16,16a-hexadecahydrocyclopropa [e]pyrrolo[1,2-a][1,4] diazacyclopentadecine-14a-carboxamide], for which the EC50 is < 1000 nM.
For `COc1ccc2c(O[C@@H]3C[C@H]4C(=O)N[C@@H](C(=O)NS(=O)(=O)C5CC5)C/C=C\CCCCC[C@H](CC(=O)N5CCCCC5)C(=O)N4C3)cc(-c3ccccc3)nc2c1` [Compound 56, (3R,12R,16R,17aS, Z)-N-(cyclopropylsulfonyl)-16-(7-methoxy-2-phenylquinolin-4-yloxy)-1,13-dioxo-12-(2-oxo-2-(piperidin-1-yl)ethyl)-2,3,4,7,8,9,10,11, 12,13,15,16,17,17a-tetradecahydro-1H-pyrrolo[1,2-a][1,4] diazacyclopentadecine-3-carboxamide], the EC50 fell in the range of 1000 to 10000 nM.
With `COc1ccc2c(O[C@@H]3C[C@H]4C(=O)N[C@H](C(=O)NS(=O)(=O)C5CC5)C/C=C\CCCCC[C@H](CC(=O)N5CCCCC5)C(=O)N4C3)cc(-c3ccccc3)nc2c1` [Compound 57, (3S,12R,16R,17aS,Z)-N-(cyclopropylsulfonyl)-16-(7-methoxy-2-phenylquinolin-4-yloxy)-1,13-dioxo-12-(2-oxo-2-(piperidin-1-yl)ethyl)-2,3,4,7,8,9,10,11, 12,13,15,16,17,17a-tetradecahydro-1H-pyrrolo[1,2-a][1,4] diazacyclopentadecine-3-carboxamide], the EC50 was in the range of 1000 to 10000 nM.
Consider `COc1ccc2c(O[C@@H]3C[C@H]4C(=O)N[C@]5(C(=O)NS(=O)(=O)C6CC6)C[C@H]5/C=C\CCCCC[C@H](CC(=O)O)C(=O)N4C3)cc(-c3ccccc3)nc2c1` [Compound 59, 2-((2R,6R,13aS, 14aR,16aS,Z)-14a-(cyclopropylsulfonyl-carbamoyl)-2-(7-methoxy-2-phenylquinolin-4-yloxy)-5,16-dioxo-1,2,3,5,6,7,8,9,10,11, 13a,14,14a,15,16,16a-hexadecahydrocyclopropa [e]pyrrolo[1,2-a][1,4]diazacyclopentadecin-6-yl)acetic acid], for which the 50% effective concentration (EC50) is < 1000 nM.
For the molecule `COc1ccc2c(O[C@@H]3C[C@H]4C(=O)N[C@]5(C(=O)NS(=O)(=O)C6CC6)C[C@H]5/C=C\CCCCC[C@H](CC(=O)N5CCOCC5)C(=O)N4C3)cc(-c3ccccc3)nc2c1` [Compound 60, (2R,6R,13aS, 14aR,16aS,Z)-N-(cyclopropylsulfonyl)-2-(7-methoxy-2-phenylquinolin-4-yloxy)-6-(2-morpholino-2-oxoethyl)-5,16-dioxo-1,2,3,5,6,7,8,9,10,11, 13a,14,14a,15,16,16a-hexadecahydrocyclopropa [e]pyrrolo[1,2-a][1,4] diazacyclopentadecine-14a-carboxamide], the EC50 was < 1000 nM.
